Results published in US7144452B2, “Ink jet black ink, ink set, ink jet recording method, ink cartridge, recording unit, and ink jet recording apparatus” (Canon Kabushiki Kaisha, priority 2004, dated 2006).
Like-named read-outs stand apart in the source and are kept apart here.

Experiment: Relative permittivity of water-soluble organic solvent (LCR meter)
Assay type: physicochemical
Experimental: The relative permittivity of the water-soluble organic solvent of various types was measured with LCR Meter 4284A (manufactured by Hewlett-Packard Japan, Ltd.) under conditions of a room temperature of 20° C. and a measurement frequency of 1 MHz.

[1] = room temperature of 20° C., 1 MHz

Row | Compound | Relative permittivity (measurement frequency: 1 MHz) [1] | Relative permittivity (measurement frequency: 1 MHz)
1 | O=C1CCCN1 [2-Pyrrolidone] | 27.5 | –
2 | OCC(O)CO [Glycerol] | 43.0 | –
3 | CC(O)CO (stereo not drawn) [1,2-Propanediol] | 32.2 | –
4 | OCCCCC(O)CO (stereo not drawn) [1,2,6-Hexanetriol] | 28.5 | –
5 | OCCO [Ethylene glycol] | – | 38.1
6 | OCCCCO [1,4-Butanediol] | – | 31.3
